These results are taken from ChEMBL document CHEMBL1201861, “Genomics of Drug Sensitity in Cancer screening data, Wellcome Trust Sanger Institute”.

As usually defined, the pIC50 is the negative decadic logarithm of the IC50, by convention in mol/L. Read a low pIC50 as a large IC50.

pIC50: −log10 of the molar value. Some results are limits rather than exact numbers.

One assay concerns NCI-H2405. The assay is described as follows: cells. The class given is functional, cell-based. Particulars: Homo sapiens.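 Also: growth inhibition of the human cell line, read out with a cell viability assay.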
Description: SANGER: Inhibition of human NCI-H2405 cell growth in a cell viability assay.
`CC1(C)CCC(c2ccc(Cl)cc2)=C(CN2CCN(c3ccc(C(=O)NS(=O)(=O)c4ccc(N[C@H](CCN5CCOCC5)CSc5ccccc5)c(S(=O)(=O)C(F)(F)F)c4)cc3)CC2)C1` [NAVITOCLAX] had a pIC50 of less than 5.70.

Another assay deals with EFO-27. The assay can be described thus: cells. Particulars: Homo sapiens. The class given is functional, cell-based.
Description: SANGER: Inhibition of human EFO-27 cell growth in a cell viability assay.
In turn, `CC1(C)CCC(c2ccc(Cl)cc2)=C(CN2CCN(c3ccc(C(=O)NS(=O)(=O)c4ccc(N[C@H](CCN5CCOCC5)CSc5ccccc5)c(S(=O)(=O)C(F)(F)F)c4)cc3)CC2)C1` [NAVITOCLAX] showed a negative logarithm of the IC50 (pIC50) of less than 5.70.

In another assay the test system is GAMG. The assay can be described thus: cells. The class given is functional, cell-based. Particulars: Homo sapiens.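 Also: cell growth inhibition measured by a viability assay in the GAMG human cell line.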
Description: SANGER: Inhibition of human GAMG cell growth in a cell viability assay.
The compound `CC1(C)CCC(c2ccc(Cl)cc2)=C(CN2CCN(c3ccc(C(=O)NS(=O)(=O)c4ccc(N[C@H](CCN5CCOCC5)CSc5ccccc5)c(S(=O)(=O)C(F)(F)F)c4)cc3)CC2)C1` [NAVITOCLAX] gave a pIC50 of less than 5.70.

The test system of the next assay is HCC1954. The assay can be described thus: cells. The class given is functional, cell-based. The following applies: Homo sapiens.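 Also: growth inhibition of human HCC1954 cells, read out with a cell viability assay.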
Description: SANGER: Inhibition of human HCC1954 cell growth in a cell viability assay.
With `CC1(C)CCC(c2ccc(Cl)cc2)=C(CN2CCN(c3ccc(C(=O)NS(=O)(=O)c4ccc(N[C@H](CCN5CCOCC5)CSc5ccccc5)c(S(=O)(=O)C(F)(F)F)c4)cc3)CC2)C1` [NAVITOCLAX], the pIC50 was less than 5.70.

Another assay relates to HGC-27. The assay can be described thus: cells. The class given is functional, cell-based. Particulars: Homo sapiens.
Description: SANGER: Inhibition of human HGC-27 cell growth in a cell viability assay.
With `CC1(C)CCC(c2ccc(Cl)cc2)=C(CN2CCN(c3ccc(C(=O)NS(=O)(=O)c4ccc(N[C@H](CCN5CCOCC5)CSc5ccccc5)c(S(=O)(=O)C(F)(F)F)c4)cc3)CC2)C1` [NAVITOCLAX], the pIC50 was less than 5.70.

For another assay, the system named is NCI-H522. The assay can be described thus: cells. It counts as functional, cell-based. Particulars: Homo sapiens.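 Also: cell viability assay measuring growth inhibition of human NCI-H522 cells.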
Description: SANGER: Inhibition of human NCI-H522 cell growth in a cell viability assay.
`CC1(C)CCC(c2ccc(Cl)cc2)=C(CN2CCN(c3ccc(C(=O)NS(=O)(=O)c4ccc(N[C@H](CCN5CCOCC5)CSc5ccccc5)c(S(=O)(=O)C(F)(F)F)c4)cc3)CC2)C1` [NAVITOCLAX] had a pIC50 of less than 5.70.

A further assay relates to HLE. The assay is described as follows: cells. The class given is functional, cell-based. Particulars: Homo sapiens.
Description: SANGER: Inhibition of human HLE cell growth in a cell viability assay.
`CC1(C)CCC(c2ccc(Cl)cc2)=C(CN2CCN(c3ccc(C(=O)NS(=O)(=O)c4ccc(N[C@H](CCN5CCOCC5)CSc5ccccc5)c(S(=O)(=O)C(F)(F)F)c4)cc3)CC2)C1` [NAVITOCLAX] gave a pIC50 of less than 5.70.

In another assay the test system is A-427. The assay can be described thus: cells. The following applies: Homo sapiens. The class given is functional, cell-based.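 Also: growth inhibition of human A-427 cells, read out by a cell viability assay.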
Description: SANGER: Inhibition of human A427 cell growth in a cell viability assay.
In the case of `CC1(C)CCC(c2ccc(Cl)cc2)=C(CN2CCN(c3ccc(C(=O)NS(=O)(=O)c4ccc(N[C@H](CCN5CCOCC5)CSc5ccccc5)c(S(=O)(=O)C(F)(F)F)c4)cc3)CC2)C1` [NAVITOCLAX], the pIC50 is 6.03.

The next assay relates to SW626. The assay can be described thus: cells. It counts as functional, cell-based. Particulars: Homo sapiens.
Description: SANGER: Inhibition of human SW626 cell growth in a cell viability assay.
`CC1(C)CCC(c2ccc(Cl)cc2)=C(CN2CCN(c3ccc(C(=O)NS(=O)(=O)c4ccc(N[C@H](CCN5CCOCC5)CSc5ccccc5)c(S(=O)(=O)C(F)(F)F)c4)cc3)CC2)C1` [NAVITOCLAX]: the pIC50 was less than 5.70.

The subject of another assay is CAMA-1. The assay is described as follows: cells. The class given is functional, cell-based. Particulars: Homo sapiens.
Description: SANGER: Inhibition of human CAMA-1 cell growth in a cell viability assay.
`CC1(C)CCC(c2ccc(Cl)cc2)=C(CN2CCN(c3ccc(C(=O)NS(=O)(=O)c4ccc(N[C@H](CCN5CCOCC5)CSc5ccccc5)c(S(=O)(=O)C(F)(F)F)c4)cc3)CC2)C1` [NAVITOCLAX] showed a pIC50 of less than 5.70.

The next assay has as its system HuP-T3. The assay is described as follows: cells. It counts as functional, cell-based. The following applies: Homo sapiens.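 Also: HuP-T3 cell growth inhibition, read out with a cell viability assay.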
Description: SANGER: Inhibition of human HuP-T3 cell growth in a cell viability assay.
`CC1(C)CCC(c2ccc(Cl)cc2)=C(CN2CCN(c3ccc(C(=O)NS(=O)(=O)c4ccc(N[C@H](CCN5CCOCC5)CSc5ccccc5)c(S(=O)(=O)C(F)(F)F)c4)cc3)CC2)C1` [NAVITOCLAX] had a negative logarithm of the IC50 (pIC50) of less than 5.70.

Another assay concerns FaDu. The assay can be described thus: cells. It counts as functional, cell-based. The following applies: Homo sapiens.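 Also: cell viability readout of growth inhibition in FaDu cells.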
Description: SANGER: Inhibition of human FADU cell growth in a cell viability assay.
For the compound `CC1(C)CCC(c2ccc(Cl)cc2)=C(CN2CCN(c3ccc(C(=O)NS(=O)(=O)c4ccc(N[C@H](CCN5CCOCC5)CSc5ccccc5)c(S(=O)(=O)C(F)(F)F)c4)cc3)CC2)C1` [NAVITOCLAX], the pIC50 was less than 5.70.

The next assay deals with MKN-45. The assay can be described thus: cells. The class given is functional, cell-based. The following applies: Homo sapiens.
Description: SANGER: Inhibition of human MKN45 cell growth in a cell viability assay.
`CC1(C)CCC(c2ccc(Cl)cc2)=C(CN2CCN(c3ccc(C(=O)NS(=O)(=O)c4ccc(N[C@H](CCN5CCOCC5)CSc5ccccc5)c(S(=O)(=O)C(F)(F)F)c4)cc3)CC2)C1` [NAVITOCLAX] showed a pIC50 of less than 5.70.

A further assay concerns T-24. The assay is described as follows: cells. It counts as functional, cell-based. Particulars: Homo sapiens.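 Also: growth inhibition of T-24 cells, read out with a cell viability assay.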
Description: SANGER: Inhibition of human T-24 cell growth in a cell viability assay.
In turn, `CC1(C)CCC(c2ccc(Cl)cc2)=C(CN2CCN(c3ccc(C(=O)NS(=O)(=O)c4ccc(N[C@H](CCN5CCOCC5)CSc5ccccc5)c(S(=O)(=O)C(F)(F)F)c4)cc3)CC2)C1` [NAVITOCLAX] showed a pIC50 of less than 5.70.

A further assay has as its system UO-31. The assay is described as follows: cells. It counts as functional, cell-based. Particulars: Homo sapiens.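 Also: cell viability assay measuring inhibition of cell growth.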
Description: SANGER: Inhibition of human U031 cell growth in a cell viability assay.
`CC1(C)CCC(c2ccc(Cl)cc2)=C(CN2CCN(c3ccc(C(=O)NS(=O)(=O)c4ccc(N[C@H](CCN5CCOCC5)CSc5ccccc5)c(S(=O)(=O)C(F)(F)F)c4)cc3)CC2)C1` [NAVITOCLAX] showed a negative-log IC50 (pIC50) of less than 5.70.

A further assay relates to SW1990. The assay is described as follows: cells. It counts as functional, cell-based. Particulars: Homo sapiens.
Description: SANGER: Inhibition of human SW1990 cell growth in a cell viability assay.
For the compound `CC1(C)CCC(c2ccc(Cl)cc2)=C(CN2CCN(c3ccc(C(=O)NS(=O)(=O)c4ccc(N[C@H](CCN5CCOCC5)CSc5ccccc5)c(S(=O)(=O)C(F)(F)F)c4)cc3)CC2)C1` [NAVITOCLAX], the pIC50 was less than 5.70.

A further assay has as its system HCC1395. The assay can be described thus: cells. It counts as functional, cell-based. Particulars: Homo sapiens.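 Also: growth inhibition of HCC1395 cells, read out by a cell viability assay.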
Description: SANGER: Inhibition of human HCC1395 cell growth in a cell viability assay.
`CC1(C)CCC(c2ccc(Cl)cc2)=C(CN2CCN(c3ccc(C(=O)NS(=O)(=O)c4ccc(N[C@H](CCN5CCOCC5)CSc5ccccc5)c(S(=O)(=O)C(F)(F)F)c4)cc3)CC2)C1` [NAVITOCLAX] had a negative logarithm of the IC50 (pIC50) of less than 5.70.

Another assay has as its system NCI-H810. The assay can be described thus: cells. The class given is functional, cell-based. Particulars: Homo sapiens.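 Also: IC50 reflects inhibition of cancer cell line growth, read out with a cell viability assay.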
Description: SANGER: Inhibition of human NCI-H810 cell growth in a cell viability assay.
Turning to `CC1(C)CCC(c2ccc(Cl)cc2)=C(CN2CCN(c3ccc(C(=O)NS(=O)(=O)c4ccc(N[C@H](CCN5CCOCC5)CSc5ccccc5)c(S(=O)(=O)C(F)(F)F)c4)cc3)CC2)C1` [NAVITOCLAX], the pIC50 is less than 5.70.

The test system of another assay is NY. The assay can be described thus: cells. It counts as functional, cell-based. The following applies: Homo sapiens.
Description: SANGER: Inhibition of human NY cell growth in a cell viability assay.
As for `CC1(C)CCC(c2ccc(Cl)cc2)=C(CN2CCN(c3ccc(C(=O)NS(=O)(=O)c4ccc(N[C@H](CCN5CCOCC5)CSc5ccccc5)c(S(=O)(=O)C(F)(F)F)c4)cc3)CC2)C1` [NAVITOCLAX], the pIC50 is less than 5.70.

For the next assay, the system named is MKN-1. The assay is described as follows: cells. It counts as functional, cell-based. The following applies: Homo sapiens.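 Also: growth inhibition of human MKN1 cells, read out by a cell viability measurement.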
Description: SANGER: Inhibition of human MKN1 cell growth in a cell viability assay.
Consider `CC1(C)CCC(c2ccc(Cl)cc2)=C(CN2CCN(c3ccc(C(=O)NS(=O)(=O)c4ccc(N[C@H](CCN5CCOCC5)CSc5ccccc5)c(S(=O)(=O)C(F)(F)F)c4)cc3)CC2)C1` [NAVITOCLAX], for which the pIC50 was less than 5.70.

A further assay relates to HN. The assay can be described thus: cells. The class given is functional, cell-based. Particulars: Homo sapiens.
Description: SANGER: Inhibition of human HN cell growth in a cell viability assay.
For the compound `CC1(C)CCC(c2ccc(Cl)cc2)=C(CN2CCN(c3ccc(C(=O)NS(=O)(=O)c4ccc(N[C@H](CCN5CCOCC5)CSc5ccccc5)c(S(=O)(=O)C(F)(F)F)c4)cc3)CC2)C1` [NAVITOCLAX], the pIC50 was less than 5.70.
